In patent US9273033B2, “Substituted pyridone derivatives as PDE10 inhibitors” (Merck Sharp & Dohme Corp., priority 2012, dated 2016):

Biological target: human PDE10A2 (Homo sapiens (Human), UniProt Q9Y233)
Test: PDE10 fluorescence polarization (IMAP FP) inhibition assay
Format: biochemical
Details: human PDE10A2, FAM-labeled cAMP substrate, read-out: PDE10A Ki
Procedure, shortened: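 Cytoplasmic lysate of AD293 cells transiently expressing human PDE10A2 (diluted to ~20% substrate conversion) incubated 30 min at room temperature with 50 nM FAM-cAMP in Tris pH 7.2 buffer with MgCl2, DTT. Activity read by IMAP fluorescence polarization. 0% inhibition set with 1% DMSO, 100% with reference PDE10 inhibitor.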

human PDE10A2, sequence (Q9Y233 267-1055): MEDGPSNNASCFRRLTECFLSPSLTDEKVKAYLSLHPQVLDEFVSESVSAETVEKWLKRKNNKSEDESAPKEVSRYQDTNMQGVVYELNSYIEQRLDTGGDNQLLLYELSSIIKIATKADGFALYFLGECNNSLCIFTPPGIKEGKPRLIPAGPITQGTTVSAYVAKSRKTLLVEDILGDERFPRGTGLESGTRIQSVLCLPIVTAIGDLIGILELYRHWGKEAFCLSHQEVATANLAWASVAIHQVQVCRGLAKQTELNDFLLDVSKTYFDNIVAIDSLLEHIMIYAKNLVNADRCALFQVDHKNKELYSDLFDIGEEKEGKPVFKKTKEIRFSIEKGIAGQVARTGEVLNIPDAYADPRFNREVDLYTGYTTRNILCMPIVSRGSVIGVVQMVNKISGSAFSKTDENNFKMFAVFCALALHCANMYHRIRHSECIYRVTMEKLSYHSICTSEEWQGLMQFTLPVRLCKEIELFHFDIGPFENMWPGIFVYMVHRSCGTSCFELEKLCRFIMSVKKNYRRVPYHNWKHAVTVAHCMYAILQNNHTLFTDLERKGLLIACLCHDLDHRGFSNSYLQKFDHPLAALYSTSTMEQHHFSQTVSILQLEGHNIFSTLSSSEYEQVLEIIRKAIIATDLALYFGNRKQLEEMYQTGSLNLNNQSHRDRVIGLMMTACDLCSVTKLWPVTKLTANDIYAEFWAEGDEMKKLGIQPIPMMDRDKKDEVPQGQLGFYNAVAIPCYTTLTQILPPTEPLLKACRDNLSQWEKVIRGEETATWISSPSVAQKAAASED

Ki | SMILES
553 pM | COCCn1ccc(-c2cnc(C)nc2OC[C@H]2C[C@@H]2c2ccc(OC)cn2)cc1=O [Example 118, 1-(2-methoxyethyl)-4-(4-(((1S,2S)-2-(5-methoxypyridin-2-yl)cyclopropyl)methoxy)-2-methylpyrimidin-5-yl)pyridin-2(1H)-one]
1580 pM | Cc1ccc([C@H]2C[C@@H]2COc2nc(C)ncc2-c2ccn(CCC#N)c(=O)c2)nc1 [Example 119, 3-(4-(2-methyl-4-(((1S,2S)-2-(5-methylpyridin-2-yl)cyclopropyl)methoxy)pyrimidin-5-yl)-2-oxopyridin-1(2H)-yl)propanenitrile]
1060 pM | Cc1ccc([C@H]2C[C@@H]2COc2nc(C)ncc2-c2ccn(CC#N)c(=O)c2)nc1 [Example 120, 2-(4-(2-methyl-4-(((1S,2S)-2-(5-methylpyridin-2-yl)cyclopropyl)methoxy)pyrimidin-5-yl)-2-oxopyridin-1(2H)-yl)acetonitrile]
299 pM | COc1ccc([C@H]2C[C@@H]2COc2nc(C)ncc2-c2ccn(CC(F)(F)F)c(=O)c2)nc1 [Example 121, 4-(4-(((1S,2S)-2-(5-methoxypyridin-2-yl)cyclopropyl)methoxy)-2-methylpyrimidin-5-yl)-1-(2,2,2-trifluoroethyl)pyridin-2(1H)-one]
458 pM | C=CCn1ccc(-c2cnc(C)nc2OC[C@H]2C[C@@H]2c2ccc(OC)cn2)cc1=O [Example 122, 1-allyl-4-(4-(((1S,2S)-2-(5-methoxypyridin-2-yl)cyclopropyl)methoxy)-2-methylpyrimidin-5-yl)pyridin-2(1H)-one]
508 pM | C=CCn1ccc(-c2cnc(C)nc2OC[C@H]2C[C@@H]2c2ccc(C)cn2)cc1=O [Example 123, 1-allyl-4-(2-methyl-4-(((1S,2S)-2-(5-methylpyridin-2-yl)cyclopropyl)methoxy)pyrimidin-5-yl)pyridin-2(1H)-one]
284 pM | COC(=O)Cn1ccc(-c2cnc(C)nc2OC[C@H]2C[C@@H]2c2ccc(OC)cn2)cc1=O [Example 124, methyl 2-(4-(4-(((1S,2S)-2-(5-methoxypyridin-2-yl)cyclopropyl)methoxy)-2-methylpyrimidin-5-yl)-2-oxopyridin-1(2H)-yl)acetate]
1660 pM | [2H]C([2H])([2H])n1ccc(-c2cnc(C)nc2OC[C@H]2C[C@@H]2c2ccc(C)cn2)cc1=O [Example 125, 1-methyl-4-(2-methyl-4-(((1S,2S)-2-(5-methylpyridin-2-yl)cyclopropyl)methoxy)pyrimidin-5-yl)pyridin-2(1H)-one]
1010 pM | Cc1ccc([C@H]2C[C@@H]2COc2nc(C)ncc2-c2ccn(CCO)c(=O)c2)nc1 [Example 126, 1-(2-hydroxyethyl)-4-(2-methyl-4-(((1S,2S)-2-(5-methylpyridin-2-yl)cyclopropyl)methoxy)pyrimidin-5-yr)pyridin-2(1H)-one]
640 pM | COc1ccc([C@H]2C[C@@H]2COc2nc(C)ncc2-c2ccn(CCO)c(=O)c2)nc1 [Example 127, 1-(2-hydroxyethyl)-4-(4-(((1S,2S)-2-(5-methoxypyridin-2-yl)cyclopropyl)methoxy)-2-methylpyrimidin-5-yl)pyridin-2(1H)-one]
1540 pM | COc1ccc([C@H]2C[C@@H]2COc2nc(C)ncc2-c2ccn(C)c(=O)c2)nc1 [Example 128, 4-(4-(((1S,2S)-2-(5-methoxypyridin-2-yl)cyclopropyl)methoxy)-2-methylpyrimidin-5-yl)-1-methylpyridin-2(1H)-one]
394 pM | COC(=O)Cn1ccc(-c2cnc(C)nc2OC[C@H]2C[C@@H]2c2ccc(C)cn2)cc1=O [Example 129, methyl 2-(4-(2-methyl-4-(((1S,2S)-2-(5-methylpyridin-2-yl)cyclopropyl)methoxy)pyrimidin-5-yl)-2-oxopyridin-1(2H)-yl)acetate]
386 pM | COc1ccc([C@H]2C[C@@H]2COc2nc(C)ncc2-c2ccn(CC(F)F)c(=O)c2)nc1 [Example 130, 1-(2,2-difluoroethyl)-4-(4-(((1S,2S)-2-(5-methoxypyridin-2-yl)cyclopropyl)methoxy)-2-methylpyrimidin-5-yl)pyridin-2(1H)-one]
33 pM | Cc1ncc(-c2cc(=O)n(C)cc2C)c(OC[C@H]2C[C@@H]2c2ccc3c(n2)CCC3)n1 [Example 131, 4-(4-(((1S,2S)-2-(6,7-dihydro-5H-cyclopenta[b]pyridin-2-yl)cyclopropyl)methoxy)-2-methylpyrimidin-5-yl)-l,5-dimethylpyridin-2(1H)-one]
583 pM | COc1ccc([C@H]2C[C@@H]2COc2nc(C)ncc2-c2cc(=O)n(C)cc2C2CC2)nc1 [Example 132, 5-cyclopropyl-4-(4-(((1S,2S)-2-(5-methoxypyridin-2-yl)cyclopropyl)methoxy)-2-methylpyrimidin-5-yl)-1-methylpyridin-2(1H)-one]
935 pM | Cc1ccc([C@H]2C[C@@H]2COc2nc(C)ncc2-c2ccn(C3CC3)c(=O)c2)nc1 [Example 133, 1-cyclopropyl-4-(2-methyl-4-(((1S,2S)-2-(5-methylpyridin-2-yl)cyclopropyl)methoxy)pyrimidin-5-yl)pyridin-2(1H)-one]
9850 pM | COc1ccc([C@H]2C[C@@H]2COc2nc(C)ncc2-c2ccn(CC(=O)O)c(=O)c2)nc1 [Example 134, 2-(4-(4-(((1S,2S)-2-(5-methoxypyridin-2-yl)cyclopropyl)methoxy)-2-methylpyrimidin-5-yl)-2-oxopyridin-1(2H)-yl)acetic acid]
6310 pM | Cc1ccc([C@H]2C[C@@H]2COc2nc(C)ncc2-c2cnn(C)c(=O)c2)nc1 [Example 135, 2-methyl-5-(2-methyl-4-(((1S,2S)-2-(5-methylpyridin-2-yl)cyclopropyl)methoxy)pyrimidin-5-yl)pyridazin-3(2H)-one]
5740 pM | COc1ccc([C@H]2C[C@@H]2COc2nc(C)ncc2-c2cnn(C)c(=O)c2)nc1 [Example 136, 5-(4-(((1S,2S)-2-(5-methoxypyridin-2-yl)cyclopropyl)methoxy)-2-methylpyrimidin-5-yl)-2-methylpyridazin-3(2H)-one]
728 pM | COc1ccc([C@H]2C[C@@H]2COc2nc(C)ncc2-c2cnn(C)c(=O)c2Cl)nc1 [Example 137, 4-chloro-5-(4-(((1S,2S)-2-(5-methoxypyridin-2-yl)cyclopropyl)methoxy)-2-methylpyrimidin-5-yl)-2-methylpyridazin-3(2H)-one]
2160 pM | COc1ccc([C@H]2C[C@@H]2COc2nc(C)ncc2-c2cc(=O)n(C)nc2OC)nc1 [Example 138, 6-methoxy-5-(4-(((1S,2S)-2-(5-methoxypyridin-2-yl)cyclopropyl)methoxy)-2-methylpyrimidin-5-yl)-2-methylpyridazin-3(2H)-one]
21200 pM | COc1ccc([C@H]2C[C@@H]2COc2nc(C)ncc2-c2cc(=O)n(C)nc2O)nc1 [Example 139, 6-hydroxy-5-(4-(((1S,2S)-2-(5-methoxypyridin-2-yl)cyclopropyl)methoxy)-2-methylpyrimidin-5-yl)-2-methylpyridazin-3(2H)-one]
228 pM | Cc1ncc(-c2cc(=O)n(C)cn2)c(OC[C@H]2C[C@@H]2c2ccc3ccccc3n2)n1 [Example 140, 3-methyl-6-(2-methyl-4-(((1S,2S)-2-(quinolin-2-yl)cyclopropyl)methoxy)pyrimidin-5-yl)pyrimidin-4(3H)-one]
5460 pM | Cc1ccc([C@H]2C[C@@H]2COc2nc(C)ncc2-c2cc(=O)n(C)cn2)nc1 [Example 141, 3-methyl-6-(2-methyl-4-(((1S,2S)-2-(5-methylpyridin-2-yl)cyclopropyl)methoxy)pyrimidin-5-yl)pyrimidin-4(3H)-one]
6040 pM | COc1ccc([C@H]2C[C@@H]2COc2nc(C)ncc2-c2cc(=O)n(C)cn2)nc1 [Example 142, 6-(4-(((1S,2S)-2-(5-methoxypyridin-2-yl)cyclopropyl)methoxy)-2-methylpyrimidin-5-yl)-3-methylpyrimidin-4(3H)-one]
